PubChem BioAssay AID1845216 (Molecular Pharmacology Branch, DTP, NCI, 2023)

Tested on: SW 982 tumor spheroid viability
Test: Anticancer human tumor SW 982 cell line growth inhibition;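 note: spheroids exposed to compound for 7 days before readout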
Conditions: spheroids with HUVEC and MSC; for IC50: curve of first compound; for viability, T/C: stronger effect = lower value
Summary of the method: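 Single agents and combinations were tested on spheroids built from tumor cells plus HUVEC and hMSC, at half-log dilutions starting at or near clinical Cmax, else 10 microM; final DMSO 0.25% (v/v).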

[1] = second compound 1 µM, first compound 0.00949 µM
[2] = second compound 1 µM, first compound 0.03 µM
[3] = second compound 1 µM, first compound 0.0949 µM
[4] = second compound 1 µM, first compound 0.3 µM
[5] = second compound 1 µM, first compound 0.949 µM
[6] = second compound 1 µM, first compound 3 µM
[7] = second compound 3.16 µM, first compound 0.00949 µM
[8] = second compound 3.16 µM, first compound 0.03 µM
[9] = second compound 3.16 µM, first compound 0.0949 µM
[10] = second compound 3.16 µM, first compound 0.3 µM
[11] = second compound 3.16 µM, first compound 0.949 µM
[12] = second compound 3.16 µM, first compound 3 µM
[13] = second compound 10 µM, first compound 0.00949 µM
[14] = second compound 10 µM, first compound 0.03 µM
[15] = second compound 10 µM, first compound 0.0949 µM
[16] = second compound 10 µM, first compound 0.3 µM
[17] = second compound 10 µM, first compound 0.949 µM
[18] = second compound 10 µM, first compound 3 µM
[19] = second compound 31.6 µM, first compound 0.00949 µM
[20] = second compound 31.6 µM, first compound 0.03 µM
[21] = second compound 31.6 µM, first compound 0.0949 µM
[22] = second compound 31.6 µM, first compound 0.3 µM
[23] = second compound 31.6 µM, first compound 0.949 µM
[24] = second compound 31.6 µM, first compound 3 µM
[25] = second compound 100 µM, first compound 0.00949 µM
[26] = second compound 100 µM, first compound 0.03 µM
[27] = second compound 100 µM, first compound 0.0949 µM
[28] = second compound 100 µM, first compound 0.3 µM
[29] = second compound 100 µM, first compound 0.949 µM
[30] = second compound 100 µM, first compound 3 µM

Compound | IC50 (second compound 1 µM) [nM] | IC50 (second compound 3.16 µM) [nM] | IC50 (second compound 10 µM) [nM] | IC50 (second compound 31.6 µM) [nM] | IC50 (second compound 100 µM) [nM] | viability, T/C [3] [%] | viability, T/C [4] [%] | viability, T/C [5] [%] | viability, T/C [6] [%] | viability, T/C [9] [%] | viability, T/C [10] [%] | viability, T/C [11] [%] | viability, T/C [12] [%] | viability, T/C [15] [%] | viability, T/C [16] [%] | viability, T/C [17] [%] | viability, T/C [18] [%] | viability, T/C [21] [%] | viability, T/C [22] [%] | viability, T/C [23] [%] | other results
CNCc1ccc(-c2cc(-c3nc(-c4ccc(S(=O)(=O)C(C)C)cc4)cnc3N)on2)cc1 + Cn1nnc2c(C(N)=O)ncn2c1=O | 219 | 228 | 160 | 109 | 53.4 | 75.1 | 38 | 28.6 | 14.7 | 68.8 | 39.5 | 29.8 | 9.23 | 60 | 35.3 | 26.7 | 8.84 | 51.6 | 31.7 | 23.1 | viability, T/C [1]: 95.6%; viability, T/C [2]: 89.3%; viability, T/C [7]: 92.9%; viability, T/C [8]: 87.2%; viability, T/C [13]: 72.7%; viability, T/C [14]: 71.9%; viability, T/C [19]: 69%; viability, T/C [20]: 67.7%; viability, T/C [24]: 8.96%; viability, T/C [25]: 63.5%; viability, T/C [26]: 58.8%; viability, T/C [27]: 43.5%; viability, T/C [28]: 28.1%; viability, T/C [29]: 22.7%; viability, T/C [30]: 5.36%
Cc1sc2c(c1C)C(c1ccc(Cl)cc1)=NC(CC(=O)Nc1ccc(O)cc1)c1nnc(C)n1-2 (stereo not given) + Cn1nnc2c(C(N)=O)ncn2c1=O | 294 | 240 | 158 | 106 | 92.2 | 78.2 | 47.6 | 35 | 25 | 76.6 | 43.8 | 27.7 | 21.4 | 60.8 | 36.4 | 21.6 | 17.8 | 53.9 | 27.8 | 19.7 | viability, T/C [1]: 113%; viability, T/C [2]: 101%; viability, T/C [7]: 103%; viability, T/C [8]: 104%; viability, T/C [13]: 87.8%; viability, T/C [14]: 81%; viability, T/C [19]: 76.2%; viability, T/C [20]: 67.6%; viability, T/C [24]: 14.7%; viability, T/C [25]: 67.7%; viability, T/C [26]: 66.4%; viability, T/C [27]: 49.6%; viability, T/C [28]: 21.2%; viability, T/C [29]: 16.1%; viability, T/C [30]: 20.6%
Cn1ncnc1[C@H]1c2n[nH]c(=O)c3cc(F)cc(c23)N[C@@H]1c1ccc(F)cc1 + Cn1nnc2c(C(N)=O)ncn2c1=O | > 3000 | > 3000 | > 3000 | 1080 | < 9.49 | 86.6 | 89.2 | 79 | 69.9 | 79.3 | 73 | 77.3 | 59.9 | 60 | 64.3 | 60 | 50.3 | 53 | 55.5 | 50.1 | viability, T/C [1]: 90.9%; viability, T/C [2]: 88.5%; viability, T/C [7]: 89.8%; viability, T/C [8]: 62.1%; viability, T/C [13]: 70.4%; viability, T/C [14]: 69.5%; viability, T/C [19]: 56%; viability, T/C [20]: 55.7%; viability, T/C [24]: 43.9%; viability, T/C [25]: 44.5%; viability, T/C [26]: 44.9%; viability, T/C [27]: 48.1%; viability, T/C [28]: 44%; viability, T/C [29]: 39.8%; viability, T/C [30]: 39.7%
O=C(c1cc(Cc2n[nH]c(=O)c3ccccc23)ccc1F)N1CCN(C(=O)C2CC2)CC1 + Cn1nnc2c(C(N)=O)ncn2c1=O | 21400 | 21800 | 16300 | 4550 | 863 | 93.2 | 95 | 96.9 | 78.3 | 93.7 | 93.8 | 81.3 | 73.6 | 75.7 | 70.7 | 68 | 67.6 | 66.6 | 64.5 | 54.3 | viability, T/C (second compound 1 µM, first compound 9.49 µM): 66.5%; viability, T/C (second compound 1 µM, first compound 30 µM): 43.5%; viability, T/C (second compound 3.16 µM, first compound 9.49 µM): 59.7%; viability, T/C (second compound 3.16 µM, first compound 30 µM): 46.4%; viability, T/C (second compound 10 µM, first compound 9.49 µM): 57.3%; viability, T/C (second compound 10 µM, first compound 30 µM): 41.7%; viability, T/C [24]: 55.7%; viability, T/C (second compound 31.6 µM, first compound 9.49 µM): 45.2%; viability, T/C (second compound 31.6 µM, first compound 30 µM): 36%; viability, T/C [27]: 49.6%; viability, T/C [28]: 54%; viability, T/C [29]: 50.7%; viability, T/C [30]: 41.6%; viability, T/C (second compound 100 µM, first compound 9.49 µM): 38.3%; viability, T/C (second compound 100 µM, first compound 30 µM): 33.2%
